Source: ChEMBL document CHEMBL1154622, “Structure-guided design of potent and selective pyrimidylpyrrole inhibitors of extracellular signal-regulated kinase (ERK) using conformational control” (J Med Chem, 2009)

Assays:
[1] = Plasma concentration in rat at 10 mg/kg, po after 8 hrs; format: ADME, organism-based; parameters: dose 10 mg/kg, route oral
[2] = target: Serine/threonine-protein kinase DCLK2 (Homo sapiens) (UniProt Q8N568); assay: Inhibition of DCAMKL2 at 1 uM
[3] = target: Serine/threonine-protein kinase Sgk3 (Homo sapiens) (UniProt Q96BR1); assay: Inhibition of SGK3 at 1 uM
[4] = target: Mitogen-activated protein kinase 11 (Homo sapiens) (UniProt Q15759); assay: Inhibition of P38beta at 2 uM
[5] = target: Insulin receptor-related protein (Homo sapiens) (UniProt P14616); assay: Inhibition of IRR at 1 uM
[6] = target: Cyclin-dependent kinase 1 (Homo sapiens) (UniProt P06493); assay: Inhibition of CDK1 at 1 uM
Sequence of Cyclin-dependent kinase 1 (Homo sapiens) (P06493 whole entry, looked up): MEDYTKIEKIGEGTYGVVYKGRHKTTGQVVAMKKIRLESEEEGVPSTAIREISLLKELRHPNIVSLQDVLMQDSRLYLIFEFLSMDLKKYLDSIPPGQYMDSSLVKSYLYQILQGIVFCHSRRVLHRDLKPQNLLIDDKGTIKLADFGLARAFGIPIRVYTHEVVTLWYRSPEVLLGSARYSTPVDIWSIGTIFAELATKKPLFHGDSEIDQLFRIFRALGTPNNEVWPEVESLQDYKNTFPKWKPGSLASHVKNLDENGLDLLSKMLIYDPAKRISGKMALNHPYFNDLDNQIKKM

[7] = target: [Pyruvate dehydrogenase (acetyl-transferring)] kinase isozyme 1, mitochondrial (Homo sapiens) (UniProt Q15118); assay: Inhibition of PDK1 at 2 uM
[8] = target: Tyrosine-protein kinase Lyn (Homo sapiens) (UniProt P07948); assay: Inhibition of LYN at 2 uM
[9] = target: Rho-associated protein kinase 2 (Homo sapiens) (UniProt O75116); assay: Inhibition of ROCK 2 at 2 uM
[10] = target: Mitogen-activated protein kinase kinase kinase 7 (Homo sapiens, UniProt O43318); assay: Inhibition of TAK1
[11] = target: Tyrosine-protein kinase Fer (Homo sapiens) (UniProt P16591); assay: Inhibition of FER at 1 uM
[12] = target: Dual specificity tyrosine-phosphorylation-regulated kinase 1A (Homo sapiens) (UniProt Q13627); assay: Inhibition of DYRK1A at 1 uM
[13] = target: RAF proto-oncogene serine/threonine-protein kinase (Homo sapiens) (UniProt P04049); assay: Inhibition of cRAF at 2 uM
[14] = target: Tyrosine-protein kinase ITK/TSK (Homo sapiens, UniProt Q08881); assay: Inhibition of ITK
[15] = target: Serine/threonine-protein kinase MARK1 (Homo sapiens) (UniProt Q9P0L2); assay: Inhibition of MARK1 at 1 uM
[16] = target: Serine/threonine-protein kinase Sgk2 (Homo sapiens) (UniProt Q9HBY8); assay: Inhibition of SGK2 at 1 uM
Sequence of Serine/threonine-protein kinase Sgk2 (Homo sapiens) (Q9HBY8 whole entry): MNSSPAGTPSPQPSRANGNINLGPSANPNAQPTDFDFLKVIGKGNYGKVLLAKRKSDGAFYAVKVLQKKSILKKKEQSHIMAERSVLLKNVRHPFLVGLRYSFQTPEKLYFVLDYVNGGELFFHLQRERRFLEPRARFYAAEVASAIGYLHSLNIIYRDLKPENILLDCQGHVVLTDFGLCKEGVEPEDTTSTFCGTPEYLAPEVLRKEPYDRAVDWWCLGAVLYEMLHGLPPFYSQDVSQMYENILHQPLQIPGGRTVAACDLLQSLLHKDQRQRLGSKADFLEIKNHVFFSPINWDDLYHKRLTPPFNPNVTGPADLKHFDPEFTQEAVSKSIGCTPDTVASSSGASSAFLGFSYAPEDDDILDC

[17] = Plasma concentration in rat at 3 mg/kg, iv after 4 hrs; format: ADME, organism-based; parameters: dose 3 mg/kg, route intravenous
[18] = target: Receptor-type tyrosine-protein kinase FLT3 (Homo sapiens, UniProt P36888); assay: Inhibition of FLT3
[19] = Plasma concentration in rat at 10 mg/kg, po after 4 hrs; format: ADME, organism-based; parameters: dose 10 mg/kg, route oral
[20] = target: Epidermal growth factor receptor (Homo sapiens) (UniProt P00533); assay: Inhibition of EGFR at 1 uM
[21] = target: Ribosomal protein S6 kinase alpha-1 (Homo sapiens) (UniProt Q15418); assay: Inhibition of RSK1 at 1 uM
Sequence of Ribosomal protein S6 kinase alpha-1 (Homo sapiens) (Q15418 whole entry): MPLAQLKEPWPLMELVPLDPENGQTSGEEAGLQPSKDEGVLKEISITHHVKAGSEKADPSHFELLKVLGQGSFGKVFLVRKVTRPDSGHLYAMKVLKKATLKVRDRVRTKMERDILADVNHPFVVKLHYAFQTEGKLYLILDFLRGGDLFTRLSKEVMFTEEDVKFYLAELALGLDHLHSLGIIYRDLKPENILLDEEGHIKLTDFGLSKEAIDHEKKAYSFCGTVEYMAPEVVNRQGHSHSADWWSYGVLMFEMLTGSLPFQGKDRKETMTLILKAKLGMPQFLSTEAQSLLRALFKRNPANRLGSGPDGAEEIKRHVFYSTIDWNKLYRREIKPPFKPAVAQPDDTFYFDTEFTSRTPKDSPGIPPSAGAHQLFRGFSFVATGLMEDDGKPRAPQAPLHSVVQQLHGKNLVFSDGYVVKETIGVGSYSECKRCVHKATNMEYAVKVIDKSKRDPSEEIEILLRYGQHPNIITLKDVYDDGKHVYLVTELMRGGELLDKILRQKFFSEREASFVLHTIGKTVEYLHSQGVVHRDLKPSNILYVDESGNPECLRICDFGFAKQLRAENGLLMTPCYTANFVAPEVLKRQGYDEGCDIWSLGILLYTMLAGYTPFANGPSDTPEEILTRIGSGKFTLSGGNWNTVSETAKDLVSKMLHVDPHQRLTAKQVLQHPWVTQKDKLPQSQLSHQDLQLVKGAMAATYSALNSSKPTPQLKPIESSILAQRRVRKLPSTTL

[22] = target: Ribosomal protein S6 kinase alpha-5 (Homo sapiens) (UniProt O75582); assay: Inhibition of MSK1 at 1 uM
[23] = target: Proto-oncogene tyrosine-protein kinase Src (Homo sapiens, UniProt P12931); assay: Inhibition of SRC
[24] = target: Inhibitor of nuclear factor kappa-B kinase subunit alpha (Homo sapiens) (UniProt O15111); conditions: 2 uM
Sequence of Inhibitor of nuclear factor kappa-B kinase subunit alpha (Homo sapiens) (O15111 whole entry): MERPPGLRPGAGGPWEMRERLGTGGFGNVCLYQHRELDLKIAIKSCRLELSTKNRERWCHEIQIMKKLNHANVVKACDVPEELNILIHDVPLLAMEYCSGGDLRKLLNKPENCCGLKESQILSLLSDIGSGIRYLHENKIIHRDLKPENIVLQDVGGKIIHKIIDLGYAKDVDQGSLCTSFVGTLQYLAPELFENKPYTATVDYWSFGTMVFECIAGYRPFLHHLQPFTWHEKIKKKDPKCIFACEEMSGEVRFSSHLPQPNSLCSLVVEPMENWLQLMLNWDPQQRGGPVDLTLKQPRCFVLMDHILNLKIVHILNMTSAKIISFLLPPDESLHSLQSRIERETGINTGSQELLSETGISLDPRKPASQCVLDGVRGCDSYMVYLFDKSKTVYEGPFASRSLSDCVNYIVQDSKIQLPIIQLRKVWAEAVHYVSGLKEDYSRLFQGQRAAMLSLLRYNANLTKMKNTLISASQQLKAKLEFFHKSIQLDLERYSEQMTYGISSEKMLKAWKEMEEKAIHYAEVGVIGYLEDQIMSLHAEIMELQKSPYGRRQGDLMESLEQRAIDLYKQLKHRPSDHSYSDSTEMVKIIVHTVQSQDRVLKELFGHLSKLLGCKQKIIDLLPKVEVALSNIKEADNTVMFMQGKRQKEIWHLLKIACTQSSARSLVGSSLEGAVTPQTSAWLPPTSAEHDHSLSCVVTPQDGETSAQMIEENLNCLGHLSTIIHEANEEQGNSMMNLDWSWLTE
Description: Inhibition of IKKalpha at 2 uM

[25] = target: Serine/threonine-protein kinase Chk1 (Homo sapiens) (UniProt O14757); assay: Inhibition of CHK1 at 2 uM
[26] = target: Serine/threonine-protein kinase D1 (Homo sapiens) (UniProt Q15139); assay: Inhibition of PRKD1 at 1 uM
[27] = Plasma concentration in mouse at 33 mg/kg, po after 4 hrs; format: ADME, organism-based; parameters: dose 33 mg/kg, route oral
[28] = Plasma concentration in mouse at 33 mg/kg, po after 8 hrs; format: ADME, organism-based; parameters: dose 33 mg/kg, route oral
[29] = target: Serine/threonine-protein kinase BRSK1 (Homo sapiens) (UniProt Q8TDC3); assay: Inhibition of BRSK1 at 1 uM
[30] = target: Fibroblast growth factor receptor 3 (Homo sapiens) (UniProt P22607); assay: Inhibition of FGFR3 at 1 uM
Sequence of Fibroblast growth factor receptor 3 (Homo sapiens) (P22607 23-806 limits assumed): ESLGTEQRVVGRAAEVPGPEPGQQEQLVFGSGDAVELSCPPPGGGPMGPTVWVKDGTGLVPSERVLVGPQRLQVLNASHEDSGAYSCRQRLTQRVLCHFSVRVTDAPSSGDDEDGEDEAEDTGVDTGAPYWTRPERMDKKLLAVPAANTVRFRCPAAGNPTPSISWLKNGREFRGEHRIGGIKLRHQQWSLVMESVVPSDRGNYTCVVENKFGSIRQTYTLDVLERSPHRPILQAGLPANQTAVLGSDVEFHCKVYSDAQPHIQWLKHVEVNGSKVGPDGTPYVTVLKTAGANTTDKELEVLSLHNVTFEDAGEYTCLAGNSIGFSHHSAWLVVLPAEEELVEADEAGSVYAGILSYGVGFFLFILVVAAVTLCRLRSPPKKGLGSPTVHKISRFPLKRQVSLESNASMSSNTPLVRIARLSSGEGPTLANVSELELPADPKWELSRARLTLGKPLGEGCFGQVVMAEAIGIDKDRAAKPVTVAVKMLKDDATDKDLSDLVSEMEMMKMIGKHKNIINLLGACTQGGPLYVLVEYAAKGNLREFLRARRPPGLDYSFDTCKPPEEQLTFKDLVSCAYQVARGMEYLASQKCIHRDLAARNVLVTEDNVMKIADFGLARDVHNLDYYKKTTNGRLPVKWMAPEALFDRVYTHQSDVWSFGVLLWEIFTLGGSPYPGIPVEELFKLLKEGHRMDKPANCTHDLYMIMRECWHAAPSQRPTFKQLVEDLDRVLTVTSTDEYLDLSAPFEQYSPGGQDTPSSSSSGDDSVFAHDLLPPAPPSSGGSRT

[31] = target: Protein kinase C alpha type (Homo sapiens) (UniProt P17252); assay: Inhibition of PKCalpha at 2 uM
[32] = target: Vascular endothelial growth factor receptor 3 (Homo sapiens) (UniProt P35916); assay: Inhibition of FLT-4 at 1 uM
[33] = target: Dual specificity mitogen-activated protein kinase kinase 4 (Homo sapiens) (UniProt P45985); assay: Inhibition of MKK4 at 2 uM
[34] = target: Rho-associated protein kinase 1 (Homo sapiens, UniProt Q13464); assay: Inhibition of ROCK1
[35] = target: Interleukin-1 receptor-associated kinase 4 (Homo sapiens, UniProt Q9NWZ3); assay: Inhibition of IRAK4
[36] = target: Serine/threonine-protein kinase TBK1 (Homo sapiens) (UniProt Q9UHD2); assay: Inhibition of TBK1 at 1 uM
[37] = Oral bioavailability in rat at 10 mg/kg; format: ADME, organism-based; conditions: in vivo
[38] = target: Ribosomal protein S6 kinase alpha-4 (Homo sapiens) (UniProt O75676); assay: Inhibition of MSK2 at 1 uM
Sequence of Ribosomal protein S6 kinase alpha-4 (Homo sapiens) (O75676 whole entry, looked up): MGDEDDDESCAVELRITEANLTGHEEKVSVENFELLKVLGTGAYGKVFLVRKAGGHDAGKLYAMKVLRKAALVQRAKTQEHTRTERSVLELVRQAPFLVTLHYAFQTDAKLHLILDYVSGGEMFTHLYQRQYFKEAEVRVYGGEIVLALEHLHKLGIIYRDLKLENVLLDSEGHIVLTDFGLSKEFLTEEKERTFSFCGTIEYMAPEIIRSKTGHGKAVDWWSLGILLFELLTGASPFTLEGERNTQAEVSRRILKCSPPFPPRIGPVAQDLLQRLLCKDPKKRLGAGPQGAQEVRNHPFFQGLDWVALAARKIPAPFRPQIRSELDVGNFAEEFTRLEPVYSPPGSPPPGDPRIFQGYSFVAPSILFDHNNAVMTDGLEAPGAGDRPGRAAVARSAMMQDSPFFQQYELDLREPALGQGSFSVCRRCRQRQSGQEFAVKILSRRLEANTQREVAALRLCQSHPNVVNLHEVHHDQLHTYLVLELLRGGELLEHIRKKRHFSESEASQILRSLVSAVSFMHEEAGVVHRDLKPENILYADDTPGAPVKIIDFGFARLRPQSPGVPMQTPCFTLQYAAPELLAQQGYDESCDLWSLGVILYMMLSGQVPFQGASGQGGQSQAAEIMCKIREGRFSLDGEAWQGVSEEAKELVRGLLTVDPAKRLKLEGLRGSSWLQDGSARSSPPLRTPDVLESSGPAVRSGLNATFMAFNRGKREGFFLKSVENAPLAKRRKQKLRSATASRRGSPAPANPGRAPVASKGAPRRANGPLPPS

[39] = target: Interleukin-1 receptor-associated kinase 1 (Homo sapiens, UniProt P51617); assay: Inhibition of IRAK1
[40] = target: Protein kinase C beta type (Homo sapiens) (UniProt P05771); assay: Inhibition of PKCbeta2 at 2 uM
Sequence of Protein kinase C beta type (Homo sapiens) (P05771 2-671 limits assumed): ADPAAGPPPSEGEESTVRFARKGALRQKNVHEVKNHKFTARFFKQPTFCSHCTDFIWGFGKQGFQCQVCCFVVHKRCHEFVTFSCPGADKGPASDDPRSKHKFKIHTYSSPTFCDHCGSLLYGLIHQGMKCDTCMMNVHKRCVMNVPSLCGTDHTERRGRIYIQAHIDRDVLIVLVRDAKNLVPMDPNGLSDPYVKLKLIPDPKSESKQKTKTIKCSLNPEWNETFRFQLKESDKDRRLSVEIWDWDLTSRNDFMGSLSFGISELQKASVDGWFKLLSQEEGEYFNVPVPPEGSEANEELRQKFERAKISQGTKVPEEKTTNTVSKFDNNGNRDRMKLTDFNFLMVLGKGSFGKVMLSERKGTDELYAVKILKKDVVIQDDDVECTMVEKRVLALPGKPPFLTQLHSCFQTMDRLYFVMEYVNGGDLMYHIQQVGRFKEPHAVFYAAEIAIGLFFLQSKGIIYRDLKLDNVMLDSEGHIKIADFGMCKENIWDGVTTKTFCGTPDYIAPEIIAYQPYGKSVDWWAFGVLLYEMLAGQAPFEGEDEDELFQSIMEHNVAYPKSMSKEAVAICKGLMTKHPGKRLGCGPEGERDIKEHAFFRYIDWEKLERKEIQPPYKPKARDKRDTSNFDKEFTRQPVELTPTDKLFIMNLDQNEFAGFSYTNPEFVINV

[41] = target: Platelet-derived growth factor receptor alpha (Homo sapiens) (UniProt P16234); assay: Inhibition of PDGFRalpha at 2 uM
[42] = target: Serine/threonine-protein kinase Sgk1 (Homo sapiens, UniProt O00141); assay: Inhibition of SGK1
[43] = target: Tyrosine-protein kinase BTK (Homo sapiens) (UniProt Q06187); assay: Inhibition of BTK at 1 uM
Sequence of Tyrosine-protein kinase BTK (Homo sapiens) (Q06187 whole entry): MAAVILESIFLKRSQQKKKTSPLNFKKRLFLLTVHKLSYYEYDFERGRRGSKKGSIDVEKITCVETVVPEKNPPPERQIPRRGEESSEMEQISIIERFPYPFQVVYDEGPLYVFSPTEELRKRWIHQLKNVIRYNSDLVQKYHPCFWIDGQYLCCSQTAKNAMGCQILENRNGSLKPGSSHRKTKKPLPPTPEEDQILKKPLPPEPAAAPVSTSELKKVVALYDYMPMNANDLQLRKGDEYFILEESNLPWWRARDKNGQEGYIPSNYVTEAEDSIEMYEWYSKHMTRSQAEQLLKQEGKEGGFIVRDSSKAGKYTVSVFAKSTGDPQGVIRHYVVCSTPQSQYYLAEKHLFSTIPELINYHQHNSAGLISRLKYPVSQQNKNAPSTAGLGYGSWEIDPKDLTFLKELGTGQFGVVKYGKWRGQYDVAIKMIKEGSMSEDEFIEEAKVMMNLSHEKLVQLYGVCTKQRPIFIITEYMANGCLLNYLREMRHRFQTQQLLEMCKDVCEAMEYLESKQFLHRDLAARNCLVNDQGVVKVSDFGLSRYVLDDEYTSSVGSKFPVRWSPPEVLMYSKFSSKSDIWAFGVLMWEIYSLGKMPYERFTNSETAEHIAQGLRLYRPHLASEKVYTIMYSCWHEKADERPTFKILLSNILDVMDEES

[44] = Clearance in rat at 3 mg/kg, iv; format: ADME, organism-based; parameters: dose 3 mg/kg, route intravenous; conditions: in vivo
[45] = target: Vascular endothelial growth factor receptor 2 (Homo sapiens, UniProt P35968); assay: Inhibition of KDR
[46] = target: Tyrosine-protein kinase Yes (Homo sapiens) (UniProt P07947); assay: Inhibition of YES at 1 uM
[47] = target: Phosphorylase b kinase gamma catalytic chain, liver/testis isoform (Homo sapiens) (UniProt P15735); assay: Inhibition of PHKgamma2 at 1 uM
[48] = target: RAC-alpha serine/threonine-protein kinase (Homo sapiens) (UniProt P31749); assay: Inhibition of AKT1 at 1 uM
[49] = target: Protein kinase C gamma type (Homo sapiens) (UniProt P05129); assay: Inhibition of PKCgamma at 2 uM
[50] = target: Angiopoietin-1 receptor (Homo sapiens) (UniProt Q02763); assay: Inhibition of TIE2 at 1 uM
[51] = target: Protein kinase C beta type (Homo sapiens) (UniProt P05771); assay: Inhibition of PKCbeta1 at 1 uM
[52] = target: Ribosomal protein S6 kinase alpha-3 (Homo sapiens) (UniProt P51812); assay: Inhibition of RSK2 at 1 uM

Cc1cnc(Nc2ccc(F)cc2Cl)nc1-c1c[nH]c(C(=O)N[C@H](CO)c2cccc(Cl)c2)c1
concentration at 8 h [1]: 267 ng/mL | inhibition [2]: 1% | inhibition [3]: 2% | inhibition [4]: 25% | inhibition [5]: 0% | inhibition [6]: 7% | inhibition [7]: 10% | inhibition [8]: 7% | inhibition [9]: 57% | Ki [10]: 3 µM | inhibition [11]: 3% | inhibition [12]: 3% | inhibition [13]: 3% | Ki [14]: > 4 µM | inhibition [15]: 12% | inhibition [16]: 41% | concentration at 4 h [17]: 123 ng/mL | Ki [18]: 1400 nM | concentration at 4 h [19]: 329 ng/mL | inhibition [20]: 6% | inhibition [21]: 4% | inhibition [22]: 7% | Ki [23]: > 4 µM | inhibition [24]: 0% | inhibition [25]: 40% | inhibition [26]: 43% | concentration at 4 h [27]: 488 ng/mL | concentration at 8 h [28]: 122 ng/mL | inhibition [29]: 0% | inhibition [30]: 8% | inhibition [31]: 12% | inhibition [32]: 8% | inhibition [33]: 69% | Ki [34]: 1400 nM | Ki [35]: > 4 µM | inhibition [36]: 3% | bioavailability [37]: 65% | inhibition [38]: 6% | Ki [39]: > 10 µM | inhibition [40]: 4% | inhibition [41]: 3% | Ki [42]: > 10 µM | inhibition [43]: 5% | clearance [44]: 24 mL/min/kg | Ki [45]: > 4 µM | inhibition [46]: 5% | inhibition [47]: 4% | inhibition [48]: 0% | inhibition [49]: 11% | inhibition [50]: 0% | inhibition [51]: 4% | inhibition [52]: 6%
